Reference: patent US20240083910A1, “AMIDO-SUBSTITUTED PYRIDYL COMPOUNDS AND METHODS OF USE THEREOF FOR THE TREATMENT OF HERPESVIRUSES” (Merck Sharp & Dohme LLC, priority 2020, published 2024)
Where two headings read alike, the source gives them in different places.

Tests used:
[1] = target: T1, Human cytomegalovirus DNA polymerase (Human cytomegalovirus, UniProt P08546); assay: CMV polymerase assay (AlphaLISA); assay type: biochemical; conditions: HCMV polymerase 0.2 nM; 30 min pre-incubation; 60 min at 37° C.; read-out: CMV (IC50)
T1 construct: made in house; host or cells: SF21 insect cells (baculovirus vector)
T1 sequence (P08546 whole entry): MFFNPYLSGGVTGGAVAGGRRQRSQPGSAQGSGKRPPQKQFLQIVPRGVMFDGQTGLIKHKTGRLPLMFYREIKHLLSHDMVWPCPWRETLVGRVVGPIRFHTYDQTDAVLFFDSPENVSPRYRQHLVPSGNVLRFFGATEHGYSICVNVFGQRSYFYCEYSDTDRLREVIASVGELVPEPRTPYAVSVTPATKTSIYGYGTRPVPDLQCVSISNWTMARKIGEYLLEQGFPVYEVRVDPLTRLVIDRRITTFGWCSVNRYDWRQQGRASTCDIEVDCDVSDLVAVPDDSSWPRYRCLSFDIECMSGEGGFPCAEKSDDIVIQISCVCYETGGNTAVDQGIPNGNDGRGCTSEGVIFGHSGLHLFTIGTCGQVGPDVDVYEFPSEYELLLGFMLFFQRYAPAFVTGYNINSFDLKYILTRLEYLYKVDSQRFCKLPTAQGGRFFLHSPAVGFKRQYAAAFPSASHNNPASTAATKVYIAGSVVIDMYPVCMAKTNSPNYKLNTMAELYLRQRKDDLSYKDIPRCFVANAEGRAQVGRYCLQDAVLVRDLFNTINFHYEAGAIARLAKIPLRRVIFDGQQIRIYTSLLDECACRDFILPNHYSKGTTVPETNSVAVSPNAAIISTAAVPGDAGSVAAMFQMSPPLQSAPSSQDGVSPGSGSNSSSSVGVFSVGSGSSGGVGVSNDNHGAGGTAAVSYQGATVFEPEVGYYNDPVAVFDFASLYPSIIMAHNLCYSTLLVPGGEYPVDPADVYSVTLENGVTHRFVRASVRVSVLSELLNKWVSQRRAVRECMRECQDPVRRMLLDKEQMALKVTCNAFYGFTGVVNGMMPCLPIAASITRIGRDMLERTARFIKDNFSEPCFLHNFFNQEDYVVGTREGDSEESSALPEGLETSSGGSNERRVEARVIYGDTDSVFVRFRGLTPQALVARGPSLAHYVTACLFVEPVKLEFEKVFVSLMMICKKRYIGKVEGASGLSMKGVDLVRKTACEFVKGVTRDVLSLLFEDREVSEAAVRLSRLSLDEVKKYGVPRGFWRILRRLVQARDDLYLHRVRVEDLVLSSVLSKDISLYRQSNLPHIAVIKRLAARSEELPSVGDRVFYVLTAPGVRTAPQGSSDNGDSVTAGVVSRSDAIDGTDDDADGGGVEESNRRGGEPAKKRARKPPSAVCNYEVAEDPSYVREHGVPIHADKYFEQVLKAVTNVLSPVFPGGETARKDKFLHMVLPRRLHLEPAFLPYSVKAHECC
Summary of the method: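 Baculovirus-expressed polymerase (HCMV 0.2 nM, VZV 0.4 nM) preincubated 30 min with compound, then reacted 60 min at 37 °C with 1.6 nM DIG-primer/59-mer template and low-nM dNTPs including 0.8 nM biotin-dUTP. Incorporation detected by AlphaLISA; IC50 from a 4-parameter fit normalized to DMSO and pre-quenched controls.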

[2] = target: T2, varicella zoster virus DNA polymerase (Varicella-zoster virus, UniProt P09252); assay: VZV polymerase assay (AlphaLISA); assay type: biochemical; conditions: VZV polymerase 0.4 nM; 30 min pre-incubation; 60 min at 37° C.
T2 construct: made in house; host or cells: SF21 insect cells (baculovirus vector)
T2 sequence (P09252 whole entry): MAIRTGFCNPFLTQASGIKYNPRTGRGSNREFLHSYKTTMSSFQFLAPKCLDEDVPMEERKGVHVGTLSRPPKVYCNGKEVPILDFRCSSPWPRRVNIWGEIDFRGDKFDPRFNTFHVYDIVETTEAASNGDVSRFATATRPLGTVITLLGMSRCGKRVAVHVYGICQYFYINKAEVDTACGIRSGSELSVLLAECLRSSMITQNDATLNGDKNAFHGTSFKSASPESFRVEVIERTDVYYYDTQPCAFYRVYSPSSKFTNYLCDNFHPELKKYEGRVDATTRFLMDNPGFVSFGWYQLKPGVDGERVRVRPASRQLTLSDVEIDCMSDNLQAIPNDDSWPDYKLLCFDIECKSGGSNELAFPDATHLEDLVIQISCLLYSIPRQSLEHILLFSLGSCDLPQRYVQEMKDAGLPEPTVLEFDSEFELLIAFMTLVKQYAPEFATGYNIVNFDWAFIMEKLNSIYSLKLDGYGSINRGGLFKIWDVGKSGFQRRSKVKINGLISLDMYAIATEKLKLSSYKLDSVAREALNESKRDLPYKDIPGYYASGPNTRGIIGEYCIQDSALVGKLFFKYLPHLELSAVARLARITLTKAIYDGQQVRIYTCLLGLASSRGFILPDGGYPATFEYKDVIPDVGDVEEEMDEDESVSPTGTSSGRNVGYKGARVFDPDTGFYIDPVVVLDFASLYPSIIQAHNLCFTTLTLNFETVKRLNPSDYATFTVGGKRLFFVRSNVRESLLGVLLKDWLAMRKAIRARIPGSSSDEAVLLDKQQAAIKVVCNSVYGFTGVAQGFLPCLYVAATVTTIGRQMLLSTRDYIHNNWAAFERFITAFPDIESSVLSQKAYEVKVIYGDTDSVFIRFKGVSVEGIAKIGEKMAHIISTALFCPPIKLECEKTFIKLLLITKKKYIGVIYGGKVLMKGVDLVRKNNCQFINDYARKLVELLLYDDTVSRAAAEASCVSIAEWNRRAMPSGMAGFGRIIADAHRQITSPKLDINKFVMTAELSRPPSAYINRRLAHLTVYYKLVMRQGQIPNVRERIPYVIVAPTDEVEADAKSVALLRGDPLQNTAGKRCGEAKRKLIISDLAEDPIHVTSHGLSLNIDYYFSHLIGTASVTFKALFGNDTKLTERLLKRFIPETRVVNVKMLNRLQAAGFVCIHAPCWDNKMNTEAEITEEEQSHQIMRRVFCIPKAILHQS
Experimental: Human cytomegalovirus and varicella zoster virus DNA polymerases were expressed via baculovirus vector in SF21 cells and purified. Heterodimeric nucleic acid substrate used in the herpesvirus polymerase reactions was generated by annealing a 59-mer template to a 17-mer digoxigenin-labeled primer. Polymerase (HCMV final concentration of 0.2 nM; VZV final concentration of 0.4 nM) was combined with an inhibitor compound or DMSO in assay buffer (10 mM HEPES, pH 7.5, 25 mM KCl, 25 mM NaCl, 5 mM MgCl2, 5% glycerol, 0.67 mg/ml bovine serum albumin, and 1 mM tris(2-carboxyethyl)phosphine), and this mixture was pre-incubated for 30 minutes at room temperature in 384-well microtiter plates. The polymerization reaction was initiated by the addition of template/primer substrate (final concentration: 1.6 nM), and dNTPs (final concentration: 24 nM dCTP, 24 nMdGTP, 16 nM dATP, 16 nM dTTP, and 0.8 nM biotin-dUTP). After 60 min incubation at 37° C., reactions were terminated with quench buffer (25 mM HEPES pH 7.5, 100 mM NaCl, 0.25% Tween-20, 12 mM EDTA, and 1 mg/ml bovine serum albumin). Incorporation of biotinylated UTP was detected with 2.5-5 ug/ml anti-DIG AlphaLISA acceptor beads and 5-10 ug/ml streptavidin AlphaLISA donor beads (PerkinElmer). Compound effects were normalized to the window defined by the controls (DMSO only and pre-quenched wells) and were fit using a 4-parameter algorithm to report an IC50.

HCMV Strain AD169 = assay: Viral qPCR assay, HCMV; assay type: cell-based, Human cytomegalovirus; conditions: MRC-5 cells, 0.05-0.1 pfu/cell, growth media or 50% fetal bovine serum, viral genome copies by qPCR, read-out: CMV Cell (EC50)
Summary of the method: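 HCMV AD169 at 0.05-0.1 pfu/cell infected MRC-5 cells, added to 10-point 3-fold compound dilutions, in growth medium or medium with 50% FBS; ~72 h at 37°C. Viral genome copies by TaqMan qPCR against plasmid standard curve, normalized to DMSO and uninfected controls; EC50 from 4-parameter fit.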

VZV = assay: Viral qPCR assay, VZV; assay type: cell-based, varicella zoster virus; conditions: MeWo or MRC5 cells, 0.04-0.1 pfu/cell, growth medium, viral genome copies by qPCR
Summary of the method: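 VZV strain Street at 0.04-0.1 pfu/cell infected MeWo or MRC5 cells added to 10-point, 3-fold compound dilutions; ~72 h at 37° C. Viral genome copies by TaqMan qPCR against plasmid standard curve, sometimes normalised to PPIA, scaled between uninfected and DMSO-infected controls; EC50 from 4-parameter fit.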

HSV-1 Strain F = assay: Viral qPCR assay, HSV-1; assay type: cell-based, Herpes Simplex Virus type 1; conditions: Vero or MRC5 cells, 0.0005-0.004 pfu/cell, growth medium, viral genome copies by qPCR, read-out: HSV1 Cell (EC50)
Summary of the method: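 HSV-1 strain F at 0.0005–0.004 pfu/cell infected Vero or MRC5 cells, which were added to a 10-point 3-fold compound dilution and cultured ~72 h at 37 °C. Viral genomes in the lysates were quantified by TaqMan qPCR against a plasmid standard curve, in some runs normalized to cellular PPIA. EC50 came from a 4-parameter fit of % effect.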

[3] = Human betaherpesvirus 5, AD169, MRC5, 72 h

Row | Structure (SMILES) | IC50 [1] [nM] | IC50 [2] [nM] | EC50 (HCMV Strain AD169; [3]) [nM] | EC50 (VZV; Human alphaherpesvirus 3, 72 h) [nM] | EC50 (HSV-1 Strain F; Human alphaherpesvirus 1, 72 h) [nM] | EC50 (HCMV Strain AD169; ~72 hrs) [nM] | EC50 (VZV; ~72 hrs) [nM] | EC50 (HSV-1 Strain F; ~72 hrs) [nM]
1 | COc1nc(N2CCC(C(C)(C)N)C2)c(O[C@H]2CCN3C(=O)OC[C@@H]3C2)cc1C(=O)NCc1ccc(Cl)cc1 (single isomer, unassigned) [Compound 71] | 22.8 | 3.54 | 221 | 468 | 396 | – | – | –
2 | COc1nc(N2CCC(C(C)(C)N)C2)c(O[C@H]2CCN3C(=O)OC[C@@H]3C2)cc1C(=O)NCc1ccc(Cl)cc1 (single isomer, unassigned) [Compound 72] | 45.5 | 12.4 | – | – | – | 276 | 665 | 559
3 | COc1nc(-c2cnn(C(F)F)c2)c(O[C@H]2CCN3C(=O)OC[C@@H]3C2)cc1C(=O)NCc1ccc(Cl)cc1 [Compound 4] | 7.52 | 0.715 | 146 | 141 | 105 | – | – | –
4 | COc1nc(-c2cnc(C)o2)c(O[C@H]2CCN3C(=O)OC[C@@H]3C2)cc1C(=O)NCc1ccc(Cl)cc1 [Compound 5] | 4.11 | 0.161 | 71.4 | 107 | 80.1 | – | – | –
5 | COc1nc(-c2cnco2)c(O[C@H]2CCN3C(=O)OC[C@@H]3C2)cc1C(=O)NCc1ccc(Cl)cc1 [Compound 6] | 1.05 | 0.0674 | 77 | 110 | 87.5 | – | – | –
6 | COc1nc(-c2cc(C)ns2)c(O[C@H]2CCN3C(=O)OC[C@@H]3C2)cc1C(=O)NCc1ccc(Cl)cc1 [Compound 7] | 1.32 | 0.223 | 82.6 | 129 | 72.6 | – | – | –
7 | COc1nc(C)c(O[C@H]2CCN3C(=O)OC[C@@H]3C2)cc1C(=O)NCc1ccc(Cl)cc1 [Compound 8] | 37.9 | 15 | 415 | 841 | 866 | – | – | –
8 | COc1nc(-c2cc(C)no2)c(O[C@H]2CCN3C(=O)OC[C@@H]3C2)cc1C(=O)NCc1ccc(Cl)cc1 [Compound 9] | 4.87 | 1.71 | 111 | 98.4 | 85.7 | – | – | –
9 | COc1nc(-c2cnc(C3CC3)o2)c(O[C@H]2CCN3C(=O)OC[C@@H]3C2)cc1C(=O)NCc1ccc(Cl)cc1 [Compound 10] | 11.3 | 0.508 | 134 | 131 | 150 | – | – | –
10 | COc1nc(-c2cnn(Cc3ccccn3)c2)c(O[C@H]2CCN3C(=O)OC[C@@H]3C2)cc1C(=O)NCc1ccc(Cl)cc1 [Compound 15] | 12 | 12.9 | 144 | 355 | 233 | – | – | –
11 | COc1nc(-c2cnc(C(C)(C)O)s2)c(O[C@H]2CCN3C(=O)OC[C@@H]3C2)cc1C(=O)NCc1ccc(Cl)cc1 [Compound 19] | 5.55 | 2.91 | 157 | 204 | 96.9 | – | – | –
12 | COc1nc(-c2cnn(C3CC3)c2)c(O[C@H]2CCN3C(=O)OC[C@@H]3C2)cc1C(=O)NCc1ccc(Cl)cc1 [Compound 22] | 3.69 | 4.84 | 170 | 129 | 93 | – | – | –
13 | COc1nc(-c2cnn3c2CCC3)c(O[C@H]2CCN3C(=O)OC[C@@H]3C2)cc1C(=O)NCc1ccc(Cl)cc1 [Compound 24] | 7.58 | 4.03 | 200 | 390 | 195 | – | – | –
14 | COc1nc(-c2ccnnc2)c(O[C@H]2CCN3C(=O)OC[C@@H]3C2)cc1C(=O)NCc1ccc(Cl)cc1 [Compound 37] | 8.81 | 8.24 | 180 | 178 | 144 | – | – | –
15 | COc1nc(-c2cncnc2)c(O[C@H]2CCN3C(=O)OC[C@@H]3C2)cc1C(=O)NCc1ccc(Cl)cc1 [Compound 38] | 9.81 | 5.86 | 111 | 150 | 83.1 | – | – | –
